Like-named read-outs stand apart in the source and are kept apart here.
Assays:
PI3K = PI3K (Homo sapiens, UniProt P42336); experiment: Fluorescence polarization assay for PI3K; format: biochemical;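 also: PI3K kinase reaction on PIP2 with ATP, 30-60 min, product sensed by GST-GRP with red probe in fluorescence polarization (mP), controls without enzyme and at zero time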
prostate line LNCap = experiment: In vitro cell culture growth assay (MTS), LNCap; format: cell-based, human; details: LNCap cells, three days after drug treatment;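 also: viable cell density read by absorbance at 490 nm, growth expressed as percent of vehicle-treated cells on the same plate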
breast line MDA468 = experiment: In vitro cell culture growth assay (MTS), MDA468; format: cell-based, human; details: MDA468 cells, three days after drug treatment
In short: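 Three-day drug treatment starting 1 day post-plating; viable cells quantified via MTS metabolism (A490); effect normalised to in-plate vehicle controls as % growth.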

Chain of PI3K (P42336 whole entry): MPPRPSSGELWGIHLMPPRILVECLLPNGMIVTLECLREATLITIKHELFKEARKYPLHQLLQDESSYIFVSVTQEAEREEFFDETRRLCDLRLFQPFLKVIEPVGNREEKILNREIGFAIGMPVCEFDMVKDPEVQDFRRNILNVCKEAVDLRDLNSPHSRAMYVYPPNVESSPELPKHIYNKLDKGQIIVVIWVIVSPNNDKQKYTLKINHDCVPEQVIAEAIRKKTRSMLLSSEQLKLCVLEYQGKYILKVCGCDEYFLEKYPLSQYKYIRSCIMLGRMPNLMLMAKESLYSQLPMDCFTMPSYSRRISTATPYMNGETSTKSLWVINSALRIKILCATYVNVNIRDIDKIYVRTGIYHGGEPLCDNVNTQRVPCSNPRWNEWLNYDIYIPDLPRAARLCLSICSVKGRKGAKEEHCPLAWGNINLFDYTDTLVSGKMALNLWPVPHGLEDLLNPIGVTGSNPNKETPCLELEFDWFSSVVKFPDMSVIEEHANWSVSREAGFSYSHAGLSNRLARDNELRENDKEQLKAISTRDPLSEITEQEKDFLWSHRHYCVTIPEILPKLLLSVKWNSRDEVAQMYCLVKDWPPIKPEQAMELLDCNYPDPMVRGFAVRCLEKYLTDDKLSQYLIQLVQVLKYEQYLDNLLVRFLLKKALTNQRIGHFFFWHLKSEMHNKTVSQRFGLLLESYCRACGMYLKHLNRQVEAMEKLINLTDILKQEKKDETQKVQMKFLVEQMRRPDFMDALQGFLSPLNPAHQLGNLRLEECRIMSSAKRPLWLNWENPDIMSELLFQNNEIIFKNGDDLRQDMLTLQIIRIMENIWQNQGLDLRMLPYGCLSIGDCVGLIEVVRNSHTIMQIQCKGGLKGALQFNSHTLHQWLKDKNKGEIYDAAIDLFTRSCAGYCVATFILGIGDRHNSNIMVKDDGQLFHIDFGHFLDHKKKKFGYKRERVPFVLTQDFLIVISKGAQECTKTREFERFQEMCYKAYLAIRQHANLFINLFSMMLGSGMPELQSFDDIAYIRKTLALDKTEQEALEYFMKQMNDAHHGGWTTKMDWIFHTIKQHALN
Chain of PI3K (P27986 whole entry partner): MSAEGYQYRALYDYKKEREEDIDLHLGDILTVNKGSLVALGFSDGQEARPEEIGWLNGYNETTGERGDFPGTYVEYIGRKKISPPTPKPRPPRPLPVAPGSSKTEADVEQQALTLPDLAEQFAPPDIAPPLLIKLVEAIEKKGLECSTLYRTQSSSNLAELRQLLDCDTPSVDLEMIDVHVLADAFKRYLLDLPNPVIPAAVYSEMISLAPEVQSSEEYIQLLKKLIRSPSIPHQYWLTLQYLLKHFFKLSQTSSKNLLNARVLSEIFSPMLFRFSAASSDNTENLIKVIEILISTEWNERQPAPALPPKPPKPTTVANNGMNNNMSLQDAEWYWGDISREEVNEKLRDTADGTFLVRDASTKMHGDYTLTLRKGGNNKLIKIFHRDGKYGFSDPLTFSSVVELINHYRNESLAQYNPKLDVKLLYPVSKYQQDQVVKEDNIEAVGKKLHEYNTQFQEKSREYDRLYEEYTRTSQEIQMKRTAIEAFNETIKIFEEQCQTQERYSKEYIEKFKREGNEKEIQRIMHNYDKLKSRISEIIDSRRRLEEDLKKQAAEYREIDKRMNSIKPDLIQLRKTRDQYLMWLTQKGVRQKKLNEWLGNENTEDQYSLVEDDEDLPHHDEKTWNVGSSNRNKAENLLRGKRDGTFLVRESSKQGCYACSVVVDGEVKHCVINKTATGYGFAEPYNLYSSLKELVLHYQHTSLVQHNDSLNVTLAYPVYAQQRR

IC50 (PI3K; PI3Kα, read-out: PI3Kα IC50) [µM]	IC50 (prostate line LNCap) [µM]	IC50 (prostate line LNCap; Homo sapiens, LNCaP, 72 h) [µM]	Compound	IC50 (breast line MDA468) [µM]	IC50 (breast line MDA468; Homo sapiens, 72 h) [µM]	IC50 (PI3K; PI3Kα IC50, PI3Kα) [µM]	IC50 (prostate line LNCap; Homo sapiens, 72 h) [µM]
0.108	0.035		CNC(=O)Nc1ccc(-c2nc(N3CCOCC3)c3cnn(C4CCN(Cc5ccc(F)nc5)CC4)c3n2)cc1 [Compound 632, 1-[4-(1-{1-[(6-fluoropyridin-3-yl)methyl]piperidin-4-yl}-4-morpholin-4-yl-1H-pyrazolo[3,4-d]pyrimidin-6-yl)phenyl]-3-methylurea]	0.12			
7.03		4.5	O=C(NCCCc1ccccc1)Nc1ccc(-c2nc(N3CCOCC3)c3cnn(C4CCN(Cc5ccccc5)CC4)c3n2)cc1 [Compound 506, 1-{4-[1-(1-benzylpiperidin-4-yl)-4-morpholin-4-yl-1H-pyrazolo[3,4-d]pyrimidin-6-yl]phenyl}-3-(3-phenylpropyl)urea]		> 60		
0.029		1.2	CNCCNC(=O)Nc1ccc(-c2nc(N3CCOCC3)c3cnn(C4CCN(Cc5cccnc5)CC4)c3n2)cc1 [Example 342, 1-[2-(methylamino)ethyl]-3-(4-{4-morpholin-4-yl-1-[1-(pyridin-3-ylmethyl)piperidin-4-yl]-1H-pyrazolo[3,4-d]pyrimidin-6-yl}phenyl)urea]		1.1		
0.592	2.2		COC(=NC#N)Nc1ccc(-c2nc(N3CCOCC3)c3cnn(C4CCN(Cc5cccnc5)CC4)c3n2)cc1 [Compound 654, methyl N′-cyano-N-(4-{4-morpholin-4-yl-1-[1-(pyridin-3-ylmethyl)piperidin-4-yl]-1H-pyrazolo[3,4-d]pyrimidin-6-yl}phenyl)imidocarbamate]	1.3			
0.038		0.12	COC(=O)N1CCC(n2ncc3c(N4CCOCC4)nc(-c4ccc(NC(=O)Nc5ccccc5F)cc4)nc32)CC1 [Compound 860, methyl 4-[6-(4-{[(2-fluorophenyl)carbamoyl]amino}phenyl)-4-morpholin-4-yl-1H-pyrazolo[3,4-d]pyrimidin-1-yl]piperidine-1-carboxylate]		0.39		
0.989		0.58	COC(=O)Nc1ccc(-c2nc(N3CCOCC3)c3cnn(C4CCN(C(=O)c5ccc(F)cc5)CC4)c3n2)cc1 [Example 445, methyl (4-{1-[1-(4-fluorobenzoyl)piperidin-4-yl]-4-morpholin-4-yl-1H-pyrazolo[3,4-d]pyrimidin-6-yl}phenyl)carbamate]		1.6		
1.14		0.25	COC(=O)Nc1ccc(-c2nc(N3CCOCC3)c3cnn(C4CCN(C(=O)c5ccccc5F)CC4)c3n2)cc1 [Example 443, methyl (4-{1-[1-(2-fluorobenzoyl)piperidin-4-yl]-4-morpholin-4-yl-1H-pyrazolo[3,4-d]pyrimidin-6-yl}phenyl)carbamate]		0.5		
0.039		0.054	CNC(=O)Nc1ccc(-c2nc(N3CCOCC3)c3cnn(C4CCC(O)CC4)c3n2)cc1 (stereo not drawn) [Example 323, 1-{4-[1-(4-hydroxycyclohexyl)-4-morpholin-4-yl-1H-pyrazolo[3,4-d]pyrimidin-6-yl]phenyl}-3-methylurea]		0.2		
0.035	0.038		CNC(=O)Nc1ccc(-c2nc(N3CCOCC3)c3cnn(C4CCN(Cc5ccccc5Cl)CC4)c3n2)cc1 [Compound 641, 1-(4-{1-[1-(2-chlorobenzyl)piperidin-4-yl]-4-morpholin-4-yl-1H-pyrazolo[3,4-d]pyrimidin-6-yl}phenyl)-3-methylurea]	0.18			

Second part, the compound before the results:

Compound	IC50 (PI3K; PI3Kα, read-out: PI3Kα IC50) [µM]	IC50 (prostate line LNCap) [µM]	IC50 (prostate line LNCap; Homo sapiens, LNCaP, 72 h) [µM]	IC50 (breast line MDA468) [µM]	IC50 (breast line MDA468; Homo sapiens, 72 h) [µM]	IC50 (PI3K; PI3Kα IC50, PI3Kα) [µM]	IC50 (prostate line LNCap; Homo sapiens, 72 h) [µM]
c1ccc(CN2CCC(n3ncc4c(N5CCOCC5)nc(-c5cc6ccccc6s5)nc43)CC2)cc1 [Example 67]	2.91		10		12		
Cc1ccc(CN2CCC(n3ncc4c(N5CCOCC5)nc(-c5cccc(O)c5)nc43)CC2)s1 [Example 18]	0.022		0.22		1.3		
COC(=O)Nc1ccc(-c2nc(N3CCOCC3)c3cnn(C4CCN(C(=O)c5ccccc5Cl)CC4)c3n2)cc1 [Example 444, methyl (4-{1-[1-(2-chlorobenzoyl)piperidin-4-yl]-4-morpholin-4-yl-1H-pyrazolo[3,4-d]pyrimidin-6-yl}phenyl)carbamate]	0.778		0.25		0.8		
c1ccc(-n2ncc3c(N4CCOCC4)nc(-c4ccc(N5CCOCC5)nc4)nc32)cc1 [Compound 131]	1.1		60		60		
NNC(=O)Nc1ccc(-c2nc(N3CCOCC3)c3cnn(-c4ccccc4)c3n2)cc1 [Example 292, N-[4-(4-morpholin-4-yl-1-phenyl-1H-pyrazolo[3,4-d]pyrimidin-6-yl)phenyl]hydrazinecarboxamide]	0.171		5.2		8		
CC(C)OC(=O)N1CCC(n2ncc3c(N4CCOCC4)nc(-c4ccc(NC(=O)NCCO)cc4)nc32)CC1 [Compound 834, isopropyl 4-[6-(4-{[(2-hydroxyethyl)carbamoyl]amino}phenyl)-4-morpholin-4-yl-1H-pyrazolo[3,4-d]pyrimidin-1-yl]piperidine-1-carboxylate]	0.45		0.22		0.18		
O=C1COCCN1c1nc(-c2cccc(O)c2)nc2c1cnn2-c1ccccc1 [Compound 727, 4-[6-(3-hydroxyphenyl)-1-phenyl-1H-pyrazolo[3,4-d]pyrimidin-4-yl]morpholin-3-one]	11		55		> 60		
Cc1ccncc1C(=O)N1CCC(n2ncc3c(N4CCOCC4)nc(-c4ccc5[nH]ccc5c4)nc32)CC1 [Example 199, 6-(1H-indol-5-yl)-1-{1-[(4-methylpyridin-3-yl)carbonyl]piperidin-4-yl}-4-morpholin-4-yl-1H-pyrazolo[3,4-d]pyrimidine]	2.94		0.45		1.8		
CCOC(=O)N1CCC(n2ncc3c(N4CCOCC4)nc(-c4ccc(NC(=O)NC5CC5)cc4)nc32)CC1 [Compound 821, ethyl 4-(6-{4-[(cyclopropylcarbamoyl)amino]phenyl}-4-morpholin-4-yl-1H-pyrazolo[3,4-d]pyrimidin-1-yl)piperidine-1-carboxylate]	1.12		< 0.027		0.14		
Cc1ccc(C(=O)N2CCC(n3ncc4c(N5CCOCC5)nc(-c5ccc6[nH]ccc6c5)nc43)CC2)cn1 [Example 202, 6-(1H-indol-5-yl)-1-{1-[(6-methylpyridin-3-yl)carbonyl]piperidin-4-yl}-4-morpholin-4-yl-1H-pyrazolo[3,4-d]pyrimidine]	2.1		0.4		2		
NNC(=O)Nc1ccc(-c2nc(N3CCOCC3)c3cnn(-c4ccccc4)c3n2)cc1 [Compound 538, N-[4-(4-morpholin-4-yl-1-phenyl-1H-pyrazolo[3,4-d]pyrimidin-6-yl)phenyl]hydrazinecarboxamide]	0.17		5.2		8		
COC(=O)N1CCC(n2ncc3c(N4CCOC(C)C4)nc(-c4ccc(NC(=O)NCCO)cc4)nc32)CC1 (stereo not drawn) [Compound 845, methyl 4-[6-(4-{[(2-hydroxyethyl)carbamoyl]amino}phenyl)-4-(2-methylmorpholin-4-yl)-1H-pyrazolo[3,4-d]pyrimidin-1-yl]piperidine-1-carboxylate]	0.402		1.1		1.6		
Nc1ccc(-c2nc(N3CCOCC3)c3cnn(C4CCC5(CC4)OCCO5)c3n2)cc1 [Compound 320, 4-[1-(1,4-dioxaspiro[4.5]dec-8-yl)-4-morpholin-4-yl-1H-pyrazolo[3,4-d]pyrimidin-6-yl]aniline]	2.05		1.1		7.2		
COC(=O)N1CCC(n2ncc3c(N4CCOC(C)C4)nc(-c4ccc(NC(=O)Nc5ccccc5)cc4)nc32)CC1 (stereo not drawn) [Compound 848, methyl 4-[6-{4-[(anilinocarbonyl)amino]phenyl}-4-(2-methylmorpholin-4-yl)-1H-pyrazolo[3,4-d]pyrimidin-1-yl]piperidine-1-carboxylate]	0.06		0.062		0.72		
CN(C)c1ccc(CC(=O)Nc2ccc(-c3nc(N4CCOCC4)c4cnn(C5CCCCO5)c4n3)cc2)cc1 (stereo not drawn) [Compound 522, 2-[4-(dimethylamino)phenyl]-N-{4-[4-morpholin-4-yl-1-(tetrahydro-2H-pyran-2-yl)-1H-pyrazolo[3,4-d]pyrimidin-6-yl]phenyl}acetamide]	6.47		11		> 60		
COC(=O)N1CCC(n2ncc3c(N4CCOCC4)nc(-c4ccc(NC(=O)Oc5ccccc5F)cc4)nc32)CC1 [Compound 866, methyl 4-[6-(4-{[(2-fluorophenoxy)carbonyl]amino}phenyl)-4-morpholin-4-yl-1H-pyrazolo[3,4-d]pyrimidin-1-yl]piperidine-1-carboxylate]					30	12	12
Oc1cccc(-c2nc(N3CCOCC3)c3cnn(CCN4CCCCC4)c3n2)c1 [Compound 126]	0.06		3.3		13		
COC(=O)N1CCC(n2ncc3c(N4CCOCC4)nc(-c4ccc(NC(=O)Nc5ccc(N6CCOCC6)nc5)cc4)nc32)CC1 [Compound 911, methyl 4-[4-morpholin-4-yl-6-(4-{[(6-morpholin-4-ylpyridin-3-yl)carbamoyl]amino}phenyl)-1H-pyrazolo[3,4-d]pyrimidin-1-yl]piperidine-1-carboxylate]	0.118		0.0008		0.01		
CCCOC(=O)N1CCC(n2ncc3c(N4CCOCC4)nc(-c4ccc(NC(=O)Nc5ccncc5)cc4)nc32)CC1 [Compound 851, propyl 4-(4-morpholin-4-yl-6-{4-[(pyridin-4-ylcarbamoyl)amino]phenyl}-1H-pyrazolo[3,4-d]pyrimidin-1-yl)piperidine-1-carboxylate]	0.022		< 0.027		0.11		
